Legend:
[1] = salt forming base; cited from earlier work
[2] = cited from earlier work; for Class (safety and pharmaceutical acceptability of the counter-ions): salt forming base; for Counter Ion Class: Table 6 summary
[3] = Static humidity experiments, gravimetric weight change; format: physicochemical
From the text: Formation of hydrates can be a very slow kinetic process. A second approach to identify hydrate formation is performing static humidity experiments and monitor gravimetrically for weight change.

[4] = Stability of stressed salts and free acid by HPLC total area normalization; details: for Stability compared to free acid: Table 6 summary, in solution
Description: The scaled up salts and free acid were challenged by heat (solids stored at 25 and 60° C. for 1 week), oxidation (solids stored in oxygen headspace at 25° C. for 1 week), light (solids exposed≥1×ICH International Conference on Harmonization of Technical Requirements for Registration of Pharmaceuticals for Human Use UV confirmatory conditions), and solutions (HPLC diluent-methanol) at 25 and 40° C. for 1 week.
These samples were analyzed, along with unstressed controls, by HPLC to characterize their stability.
Salt candidates were analyzed by total area normalization (TAN). The samples were dissolved in methanol at a concentration of 0.8 mg/mL.
The three salts (lysine, arginine, and tris) were challenged using heat (solids stored at 25 and 60° C. for 1 week), oxidation (solids stored in oxygen headspace at 25° C. for 1 week), light (UV source under ICH confirmatory conditions>200 Whr/m^2), and solutions (in HPLC diluent) at 25 and 40° C. for 1 week. Stressed samples were analyzed using HPLC to determine their impurity profiles.

[5] = Hygroscopicity - Dynamic Vapor Sorption (DVS); details: for Hydration properties DVS: hydrate formed: Table 6 summary; for DVS total weight gain: at 95% RH, 25° C.
Description: DVS is a gravimetric screening technique that measures how quickly and how much of a solvent (water) is adsorbed by a sample. The relative humidity or vapor concentration surrounding the sample is varied while the change in mass of the sample is measured. […] The mass values at each relative humidity step are used to generate the isotherm. Isotherms are divided in two components: sorption for increasing humidity steps and desorption for decreasing humidity steps.
Samples were analyzed using a TA Q2000 automated dynamic vapor sorption analyzer. The samples were dried at 40° C. for 5 hours and then cooled to 25° C. with a dry nitrogen purge over them until they no longer lost mass at 0% RH.

physchem = details: buffered water, pH 4, aqueous buffer, thermodynamic from solid
Description: Milligram size (2 mg) quantities of each sample were placed into a vial. Buffered water (pH 4, 7, and 10) was added and the vials were stirred for a few minutes, followed by visual observation for remaining solids. The solvent was incrementally added until the solids were dissolved, or a maximum volume of solvent (10 mL) was added and the experiment was terminated.

4T1 mammary tumor = experiment: Anti-tumor efficacy in 4T1 mouse model of metastatic mammary cancer; format: in vivo, BALB/c mice; details: diet with 3 g/kg chow (0.3% w/w), started 9 days post tumor injection
From the text: The lysine salt was incorporated into standard mouse chow at an amount of 3 g/kg chow (0.3% w/w) by Harlan Teklad, Madison Wis. Half of the mice were placed on an α-TEA-Lys diet after the tumors were established (9 days post tumor injection.) and the rest placed on an analogous nutrient diet without α-TEA-Lys which served as the control group.

[6] = Oxidation Ambient (oxygen headspace, 25° C., 1 week)
[7] = Photo Stability Exposed (UV, ICH confirmatory conditions)
[8] = Solid State Ambient (25° C., 1 week)
[9] = Solution 40° C. Methanol, 1 week
[10] = Solution Ambient Methanol, 1 week

Row | Structure (SMILES) | Class (safety and pharmaceutical acceptability of the counter-ions) [2] | HLPC Total Area Normalization - Area % Purity [4, 6] [Area %] | HLPC Total Area Normalization - Area % Purity ([4]; Photo Stability Dark Control) [Area %] | HLPC Total Area Normalization - Area % Purity [4, 7] [Area %] | HLPC Total Area Normalization - Area % Purity ([4]; Solid State 60° C., 1 week) [Area %] | HLPC Total Area Normalization - Area % Purity [4, 8] [Area %] | HLPC Total Area Normalization - Area % Purity [4, 9] [Area %] | HLPC Total Area Normalization - Area % Purity [4, 10] [Area %] | also measured
1 | C[N+](C)(C)CCO [Choline] | I | – | – | – | – | – | – | – | pKa [1]: >11
2 | N=C(N)NCCC[C@H](N)C(=O)O [L-Arginine] | I | – | – | – | – | – | – | – | –
3 | NCCCC[C@H](N)C(=O)O [L-Lysine] | I | – | – | – | – | – | – | – | –
4 | [Ca+2].[OH-].[OH-] [calcium hydroxide] | I | – | – | – | – | – | – | – | –
5 | CN(C)CCO [deanol, N,N-dimethylethanolamine, N,N-dimethylethanolamine] | – | – | – | – | – | – | – | – | pKa [1]: 8.8
6 | [Mg+2].[OH-].[OH-] [magnesium hydroxide] | I | – | – | – | – | – | – | – | –
7 | [K+].[OH-] [potassium hydroxide] | I | – | – | – | – | – | – | – | –
8 | Cc1c(C)c2c(c(C)c1OCC(=O)O)CCC(C)(CCCC(C)CCCC(C)CCCC(C)C)O2.N=C(N)NCCC[C@H](N)C(=O)O (stereo not drawn) [α-TEA arginine salt] | – | 98.4 | 97.9 | 98.5 | 98.6 | 98.6 | 98.2 | 98.4 | Hydration properties Static 75% RH 30 Days, weight gain ([3]; 75% RH): 0.7 wt %; static humidity weight gain ([3]; 75% RH, 33 days): 0.7%; static humidity weight gain ([3]; 84% RH, 9 days): 2.3%; Stability compared to free acid [4]: more stable; Hydration properties DVS: hydrate formed [5]: hemihydrate; Counter Ion Class [2]: I
9 | Cc1c(C)c2c(c(C)c1OCC(=O)O)CC[C@@](C)(CCC[C@H](C)CCC[C@H](C)CCCC(C)C)O2 [α-TEA free acid, α-tocopheryloxyacetic acid, reference compound] | – | 97.8 | 97.7 | 98.2 | 98.0 | 97.8 | 94.6 | 96.0 | DVS conclusion on hydrate formation / deliquescence ([5]; 0 to 95% RH): does not form hydrates or exhibit deliquescence; DVS total weight gain [5]: about 0.2%; solubility (physchem): < 200 µg/mL
10 | Cc1c(C)c2c(c(C)c1OCC(=O)O)CCC(C)(CCCC(C)CCCC(C)CCCC(C)C)O2.NCCCC[C@H](N)C(=O)O (stereo not drawn) [α-TEA lysine salt] | – | 98.8 | 98.7 | 98.8 | 98.7 | 98.8 | 98.2 | 98.8 | Hydration properties Static 75% RH 30 Days, weight gain ([3]; 75% RH): 0.6 wt% wt %; static humidity weight gain ([3]; 75% RH, 33 days): 0.6%; static humidity weight gain ([3]; 84% RH, 9 days): 1.8%; Stability compared to free acid [4]: more stable; Hydration properties DVS: hydrate formed [5]: hydrate; DVS total weight gain [5]: about 12%; DVS residual weight after desorption cycle ([5]; corresponds to a putative hydrate): 2 weight %; average tumor size compared to control diet (4T1 mammary tumor): significant decrease in average tumor size; complete tumor regression, share of the mice treated (4T1 mammary tumor): about 25%; survival compared to control diet (Kaplan-Meier) (4T1 mammary tumor): increased survival; Counter Ion Class [2]: I
11 | Cc1c(C)c2c(c(C)c1OCC(=O)O)CCC(C)(CCCC(C)CCCC(C)CCCC(C)C)O2.NC(CO)(CO)CO (stereo not drawn) [α-TEA tris salt] | – | 98.5 | 98.2 | 98.7 | 98.4 | 98.6 | 98.2 | 98.5 | Hydration properties Static 75% RH 30 Days, weight gain ([3]; 75% RH): 4.0 wt %; static humidity weight gain ([3]; 75% RH, 33 days): 4.0%; Stability compared to free acid [4]: more stable; Hydration properties DVS: hydrate formed [5]: hemihydrate
